The target in the assay is T1, mAChR M4 (UniProt P08173).
T1 construct: hM1 and hM4 cDNAs were purchased from Missouri S&T cDNA Resource
T1 sequence (P08173 1-479): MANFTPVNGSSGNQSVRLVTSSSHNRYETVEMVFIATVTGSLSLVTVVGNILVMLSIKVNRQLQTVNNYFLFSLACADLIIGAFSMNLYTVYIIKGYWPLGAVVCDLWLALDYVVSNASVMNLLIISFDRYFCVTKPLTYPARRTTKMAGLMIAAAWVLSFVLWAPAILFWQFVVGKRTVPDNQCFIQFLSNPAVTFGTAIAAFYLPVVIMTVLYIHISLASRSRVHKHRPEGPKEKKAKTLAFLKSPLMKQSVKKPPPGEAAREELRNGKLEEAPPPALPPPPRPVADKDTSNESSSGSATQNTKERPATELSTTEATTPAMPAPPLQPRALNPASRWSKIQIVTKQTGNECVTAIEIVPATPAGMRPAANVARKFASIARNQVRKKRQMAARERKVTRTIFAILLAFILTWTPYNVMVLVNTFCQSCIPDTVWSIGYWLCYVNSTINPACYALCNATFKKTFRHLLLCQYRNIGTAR
As to the kind of experiment: mAChR M4 cell-based functional assay (calcium mobilization, Fluo-4, FDSS). The note with it: for Emax (%)*: % ACh maximum at 30 μM; for pEC50: positive allosteric modulator activity, EC20 acetylcholine response; for pEC50 / EC50: CHO-K1 cells; for EC50: positive allosteric modulator activity: concentration-dependent increase in the EC20 acetylcholine response, >10 μM estimated for low potency (no plateau). From the text: Chinese hamster ovary (CHO-K1) cells stably expressing rat (r)M1 were purchased from the American Type Culture Collection and cultured according to their indicated protocol. CHO cells stably expressing human (h)M2, hM3, and hM5 were described previously (Levey A I, et al., (1991) J Neurosci 11:3218-3226.); hM1 and hM4 cDNAs were purchased from Missouri S&T cDNA Resource; rM4 cDNA was provided by T. I. Bonner (National Institutes of Health, Bethesda, Md.). rM2 and rM3 were cloned from a rat brain cDNA library and sequence verified. hM1, rM2, rM3, hM4, and rM4 cDNAs were used to stably transfect CHO-K1 cells purchased from the American Type Culture Collection using Lipofectamine-2000. To make stable rM2, hM2, rM3, hM4, and rM4 cell lines for use in calcium mobilization assays, these cells also were stably transfected with a chimeric G-protein (Gqi5) (provided by B. R. Conklin, University of California, San Francisco) using Lipofectamine 2000. rM1, hM1, rM3, hM3, rM5, and hM5 cells were grown in Ham's F-12 medium containing 10% heat-inactivated fetal bovine serum (FBS), 20 mM HEPES, and 50 µg/mL G418 sulfate. rM2-Gqi5, hM2-Gqi5, and hM4-Gqi5 cells were grown in the same medium also containing 500 µg/mL Hygromycin B. Stable rM4-Gqi5 cells were grown in DMEM containing 10% heat-inactivated FBS, 20 mM HEPES, 400 µg/mL G418 sulfate, and 500 µg/mL Hygromycin B.
For high throughput measurement of agonist-evoked increases in intracellular calcium, CHO-K1 cells stably expressing the target muscarinic receptor were plated in growth medium lacking G418 and hygromycin at 15,000 cells/20 μL/well in Greiner 384-well black-walled, tissue culture (TC)-treated, clear-bottom plates (VWR). Cells were incubated overnight at 37° C. and 5% CO2. The next day, cells were washed using an ELX 405 (BioTek) with four washes (80 μL) of assay buffer then aspirated to 20 μL. Next, […] of 16 μM Fluo-4/acetoxymethyl ester (Invitrogen, Carlsbad, Calif.) prepared as a 2.3 mM stock in DMSO and mixed in a 1:1 ratio with 10% (w/v) Pluronic F-127 and diluted in assay buffer was added to the wells and the cell plates were incubated for 50 min at 37° C. and 5% CO2. Dye was removed by washing with the ELX 405 (four 80 μL washes of assay buffer) then aspirated to 20 μL. Compound master plates were formatted in an 11 point CRC format (1:3 dilutions) in 100% DMSO with a starting concentration of 10 mM using the BRAVO liquid handler (Agilent). Test compound CRCs were then transferred to daughter plates (240 nL) using the Echo acoustic plate reformatter (Labcyte, Sunnyvale, Calif.) and then diluted into assay buffer (40 μL) to a 2× stock using a Thermo Fisher Combi (Thermo Fisher Scientific, Waltham, Mass.).
Calcium flux was measured using the Functional Drug Screening System (FDSS) 6000 (Hamamatsu Corporation, Tokyo, Japan) as an increase in the fluorescent static ratio. Compounds were applied to cells (20 μL, 2×) using the automated system of the FDSS 6000 at 4 s into the 300 s protocol and the data were collected at 1 Hz. At 144 s into the 300 s protocol, 10 μL of an EC20 concentration of the muscarinic receptor agonist acetylcholine was added (5×), followed by the addition of 12 μL an EC80 concentration of acetylcholine at the 230 s time point (5×). Agonist activity was analyzed as a concentration-dependent increase in calcium mobilization upon compound addition. Positive allosteric modulator activity was analyzed as a concentration-dependent increase in the EC20 acetylcholine response. Antagonist activity was analyzed as a concentration-dependent decrease in the EC80 acetylcholine response. Concentration-response curves were generated using a four-parameter logistical equation in XLfit curve fitting software (IDBS, Bridgewater, N.J.) for Excel (Microsoft, Redmond, Wash.) or Prism (GraphPad Software, Inc., San Diego, Calif.). […]

Data on 20 molecules can be found in US9056876B2, “Substituted 1H-pyrazolo[3′,4′,4,5]thieno[2,3-b]pyridin-3-amine analogs as positive allosteric modulators of the muscarinic acetylcholine receptor M4” (VANDERBILT UNIVERSITY, priority 2011, dated 2015).

Consider `Cc1ccc2c(n1)sc1c(NCc3ccco3)n[nH]c12` [Compound 44, N-(furan-2-ylmethyl)-6-methyl-1H-pyrazolo[3′,4′:4,5]thieno[2,3-b]pyridin-3-amine], for which the “Emax (%)*” value amounted to 62%; the pEC50 (usually the negative decadic logarithm of the EC50, by convention in mol/L) turned out to be 5.30; the EC50 (commonly the concentration giving half of the maximal effect) is 5 µM.

Regarding `Cc1cc(C)c2c(n1)sc1c(NC3CCOC3)nn(CCO)c12` (centres unmarked) [Compound 108, 2-(6,8-dimethyl-3-((tetrahydrofuran-3-yl)amino)-1H-pyrazolo[3′,4′:4,5]thieno[2,3-b]pyridin-1-yl)ethanol], the “Emax (%)*” value stood at 69%, the pEC50 worked out at 6.09 and the EC50 is 0.82 µM.

Consider `Cc1cc(C)c2c(n1)sc1c(NCc3sc(C)nc3C)nn(C)c12` [Compound 99, N-((2,4-dimethylthiazol-5-yl)methyl)-1,6,8-trimethyl-1H-pyrazolo[3′,4′:4,5]thieno[2,3-b]pyridin-3-amine], for which the “Emax (%)*” value is reported as 66%, the pEC50 amounted to 7.03 and the EC50 was 0.093 µM.

On to `COc1ccc(CNc2nn(C)c3c2sc2nc(C)c(Cl)c(C)c23)cc1` [Compound 18, 7-chloro-N-(4-methoxybenzyl)-1,6,8-trimethyl-1H-pyrazolo[3′,4′:4,5]thieno[2,3-b]pyridin-3-amine], for which the “Emax (%)*” value came out at 51%, the pEC50 is less than 5.00 and the EC50 is greater than 10 µM.

Consider `Cc1ccc2c(n1)sc1c(NC(C)C)n[nH]c12` [Compound 45, N-isopropyl-6-methyl-1H-pyrazolo[3′,4′:4,5]thieno[2,3-b]pyridin-3-amine], for which the “Emax (%)*” value is given as 37%, the pEC50 is reported as less than 5.00 and the EC50 was greater than 10 µM.

As for `Cc1ccc2c(n1)sc1c(NCC3CC3)nn(C)c12` [Compound 51, N-(cyclopropylmethyl)-1,6-dimethyl-1H-pyrazolo[3′,4′:4,5]thieno[2,3-b]pyridin-3-amine], the “Emax (%)*” value was found to be 73%, the pEC50 was 5.89 and the EC50 is 1.3 µM.

With `Cc1cc(C)c2c(n1)sc1c(N)nn(C)c12` [Compound 29, 1,6,8-trimethyl-1H-pyrazolo[3′,4′:4,5]thieno[2,3-b]pyridin-3-amine], the “Emax (%)*” value was found to be 49%, the pEC50 was less than 5.00 and the EC50 was greater than 10 µM.

In the case of `Cc1cc(C)c2c(n1)sc1c(NC(C)C)nn(C)c12` [Compound 41, N-isopropyl-1,6,8-trimethyl-1H-pyrazolo[3′,4′:4,5]thieno[2,3-b]pyridin-3-amine], the “Emax (%)*” value was determined as 87%, the pEC50 is 6.11 and the concentration giving a half-maximal response (EC50) was 0.78 µM.

`Cc1cc(C)c2c(n1)sc1c(NCc3ccccn3)nn(C)c12` [Compound 77, 1,6,8-trimethyl-N-(pyridin-2-ylmethyl)-1H-pyrazolo[3′,4′:4,5]thieno[2,3-b]pyridin-3-amine]: the “Emax (%)*” value is given as 55%, the pEC50 worked out at 6.27 and the EC50 was 0.54 µM.

For the molecule `Cc1cc(C)c2c(n1)sc1c(NCc3ccc4[nH]ccc4c3)nn(C)c12` [Compound 88, N-((1H-indo1-5-yl)methyl)-1,6,8-trimethyl-1H-pyrazolo[3′,4′:4,5]thieno[2,3-b]pyridin-3-amine], the “Emax (%)*” value was 67%, the pEC50 was determined as 5.89 and the EC50 is 1.3 µM.

For the molecule `Cc1nc2sc3c(NCc4ccco4)n[nH]c3c2c(C)c1Cl` [Compound 20, 7-chloro-N-(furan-2-ylmethyl)-6,8-dimethyl-1H-pyrazolo[3′,4′:4,5]thieno[2,3-b]pyridin-3-amine], the “Emax (%)*” value came out at 48%, the pEC50 came to 5.85 and the EC50 is 1.4 µM.

Regarding `Cc1cc(C)c2c(n1)sc1c(NCCC(C)C)nn(C)c12` [Compound 32, N-isopentyl-1,6,8-trimethyl-1H-pyrazolo[3′,4′:4,5]thieno[2,3-b]pyridin-3-amine], the “Emax (%)*” value is 81%, the pEC50 was 6.72 and the EC50 was 0.19 µM.

In the case of `Cc1cc(C)c2c(n1)sc1c(NC3CCCSC3)nn(CCO)c12` (centres unmarked) [Compound 113, 2-(6,8-dimethyl-3-((tetrahydro-2H-thiopyran-3-yl)amino)-1H-pyrazolo[3′,4′:4,5]thieno[2,3-b]pyridin-1-yl)ethanol], the “Emax (%)*” value was 62%, the pEC50 amounted to 6.37 and the EC50 was 0.43 µM.

In the case of `Cc1cc(C)c2c(n1)sc1c(NC(C)CS(C)(=O)=O)nn(C)c12` (centres unmarked) [Compound 164, 1,6,8-trimethyl-N-(1-(methylsulfonyl)propan-2-yl)-1H-pyrazolo[3′,4′:4,5]thieno[2,3-b]pyridin-3-amine], the pEC50 is less than 5.00 and the EC50 was greater than 10 µM.

Consider `Cc1cc(C)c2c(n1)sc1c(NC3CCN(C)CC3)n[nH]c12` [Compound 134, 6,8-dimethyl-N-(1-methylpiperidin-4-yl)-1H-pyrazolo[3′,4′:4,5]thieno[2,3-b]pyridin-3-amine], for which the pEC50 is less than 5.00 and the EC50 was greater than 10 µM.

Regarding `Cc1ccc2c(n1)sc1c(NCc3ccncc3)nn(C)c12` [Compound 67, 1,6-dimethyl-N-(pyridin-4-ylmethyl)-1H-pyrazolo[3′,4′:4,5]thieno[2,3-b]pyridin-3-amine], the “Emax (%)*” value amounted to 80%, the pEC50 was determined as 5.96 and the EC50 was 1.1 µM.

For `Cc1cc(C)c2c(n1)sc1c(NCc3ccc(F)c(F)c3)nn(C)c12` [Compound 60, N-(3,4-difluorobenzyl)-1,6,8-trimethyl-1H-pyrazolo[3′,4′:4,5]thieno[2,3-b]pyridin-3-amine], the “Emax (%)*” value came to 63%, the pEC50 is recorded as less than 5.00 and the EC50 is greater than 10 µM.

`Cc1cc(C)c2c(n1)sc1c(NCc3ccccc3F)n[nH]c12` [Compound 9, N-(2-fluorobenzyl)-6,8-dimethyl-1H-pyrazolo[3′,4′:4,5]thieno[2,3-b]pyridin-3-amine]: the “Emax (%)*” value was found to be 43%, the negative logarithm of the EC50 (pEC50) is given as 5.98 and the EC50 was 1.05 µM.

Take `Cc1cc(C)c2c(n1)sc1c(NC3CCN(C(C)C)CC3)n[nH]c12` [Compound 131, N-(1-isopropylpiperidin-4-yl)-6,8-dimethyl-1H-pyrazolo[3′,4′:4,5]thieno[2,3-b]pyridin-3-amine]: the pEC50 is listed as less than 5.00 and the EC50 was greater than 10 µM.

Turning to `Cc1cc(C)c2c(n1)sc1c(NC(=O)c3ccccc3)nn(C)c12` [Compound 152, N-(1,6,8-trimethyl-1H-pyrazolo[3′,4′:4,5]thieno[2,3-b]pyridin-3-yl)benzamide], the pEC50 is reported as less than 5.00 and the EC50 is greater than 10 µM.
